Patent US20240109905A1, “4-ALKOXY-6-OXO-PYRIDAZINE DERIVATIVES MODULATING NLRP3” (JANSSEN PHARMACEUTICA NV, priority 2021, published 2024)
Like-named read-outs stand apart in the source and are kept apart here.

Tests used:
[1] = tested on: TNF; test: PBMC assay: TNF cytokine level after LPS stimulation; type: cell-based; settings: human PBMCs, 30 min compound, 100 ng/ml LPS for 6 hrs, MSD
Description: (§1) Peripheral venous blood was collected from healthy individuals and human peripheral blood mononuclear cells (PBMCs) were isolated from blood by Ficoll-Histopaque (Sigma-Aldrich, A0561) density gradient centrifugation. After isolation, PBMCs were stored in liquid nitrogen for later use. Upon thawing, PBMC cell viability was determined in growth medium (RPMI media supplemented with 10% fetal bovine serum, 1% Pen-Strep and 1% L-glutamine). Compounds were spotted in a 1:3 serial dilution in DMSO and diluted to the final concentration in 30 μl medium in 96 well plates (Falcon, 353072). PBMCs were added at a density of 7.5×10^4 cells per well and incubated for 30 min in a 5% CO2 incubator at 37° C. LPS stimulation was performed by addition of 100 ng/ml LPS (final concentration, Invivogen, tlrl-smlps) for 6 hrs followed by collection of cellular supernatant and the analysis of IL-1β (μM) and TNF cytokines levels (μM) via MSD technology according to manufacturers' guidelines (MSD, K151A0H).
(§2) IC50 and AC50 values (for […]) and EC50 and AC50 values (TNF) were obtained on compounds of the invention/examples, and the AC50 values are depicted in the following table: […]

[2] = tested on: IL-1β; test: PBMC assay: IL-1β release after LPS stimulation; type: cell-based; settings: human PBMCs, 30 min compound, 100 ng/ml LPS for 6 hrs, MSD, read-out: IL1β AC50
Description: The activity of a compound according to the present invention can be assessed by in vitro methods.
as §1, §2

SMILES	AC50 ([1]; PBMC) [µM]	AC50 ([2]; PBMC) [µM]	AC50 [1] [µM]	AC50 [2] [µM]
CC(C)COc1cc(=O)n(CC(=O)NC23CC(C(C)(C)O)(C2)C3)nc1C(C)C [Compound 85, N-(3-(2-hydroxypropan-2-yl)bicyclo[1.1.1]pentan-1-yl)-2-(4-isobutoxy-3-isopropyl-6-oxopyridazin-1(6H)-yl)acetamide]	> 20	0.65	–	–
CC(C)COc1cc(=O)n(CC(=O)NC23CCC(N)(C2)C3)nc1C(C)C [Compound 86]	> 20	0.66	–	–
CC(C)COc1cc(=O)n(CC(=O)Nc2nc3cc(C(F)(F)F)ccn3n2)nc1C(C)C [Compound 87]	> 20	0.66	–	–
CC(C)COc1cc(=O)n(CC(=O)NC23CCC(O)(CC2)CC3)nc1C(C)C [Compound 88]	> 20	0.66	–	–
CC(C)COc1cc(=O)n(CC(=O)N[C@H]2C[C@]3(CCN3C)C2)nc1C(C)C [Compound 89, 2-(4-isobutoxy-3-isopropyl-6-oxopyridazin-1(6H)-yl)-N-((4s,6r)-1-methyl-1-azaspiro[3.3]heptan-6-yl)acetamide]	> 20	0.67	–	–
Cc1noc(C23CC(NC(=O)Cn4nc(C(C)C)c(OCC(C)C)cc4=O)(C2)C3)n1 [Compound 90, 2-(4-isobutoxy-3-isopropyl-6-oxopyridazin-1(6H)-yl)-N-(3-(3-methyl-1,2,4-oxadiazol-5-yl)bicyclo[1.1.1]pentan-1-yl)acetamide]	> 20	0.68	–	–
Cc1ccn2nc(NC(=O)Cn3nc(C(C)C)c(OCC(C)C)cc3=O)nc2c1 [Compound 91]	> 20	0.69	–	–
CC(C)COc1cc(=O)n(CC(=O)NC23CC(C)(C2)C3)nc1C(C)C [Compound 92]	> 20	0.71	–	–
CC(C)c1nn(CC(=O)Nc2ccc3nncn3c2)c(=O)c(Cl)c1OCC(C)(F)F [Compound 93]	8.92	0.77	–	–
CC(C)COc1cc(=O)n(CC(=O)NC23CC(N4CCOCC4)(C2)C3)nc1C(C)C [Compound 94]	> 20	0.78	–	–
CN(C)c1nn(CC(=O)Nc2ccc3nncn3n2)c(=O)cc1OCC(F)(F)F [Compound 95]	18.2	0.79	–	–
CC(C)COc1cc(=O)n(CC(=O)NC2(CC(=O)O)CCCC2)nc1C(C)C [Compound 96]	–	–	> 20	0.87
CC(C)COc1cc(=O)n(CC(=O)Nc2cn3ccncc3n2)nc1C(C)C [Compound 97]	5.01	0.95	–	–
CC(C)COc1cc(=O)n(CC(=O)NC23CC(C4=NN(C)C(=O)C4)(C2)C3)nc1C(C)C [Compound 98, 2-(4-isobutoxy-3-isopropyl-6-oxopyridazin-1(6H)-yl)-N-(3-(1-methyl-5-oxo-4,5-dihydro-1H-pyrazol-3-yl)bicyclo[1.1.1]pentan-1-yl)acetamide]	> 20	0.96	–	–
CC(C)COc1cc(=O)n(CC(=O)NC23CCC(N)(CC2)CC3)nc1C(C)C [Compound 99]	> 20	0.97	–	–
CC(C)COc1cc(=O)n(CC(=O)Nc2cn3cccnc3n2)nc1C(C)C [Compound 100]	4.81	1	–	–
CC(C)COc1cc(=O)n(CC(=O)NC23CC(S(C)(=O)=O)(C2)C3)nc1C(C)C [Compound 101]	> 20	1.02	–	–
CC(C)c1nn(CC(=O)Nc2ccc3nncn3n2)c(=O)cc1OCCC(F)(F)F [Compound 102]	> 20	1.06	–	–
CC(C)COc1cc(=O)n(CC(=O)Nc2cc3ncccn3n2)nc1C(C)C [Compound 103]	> 20	1.1	–	–
CC(C)COc1cc(=O)n(CC(=O)NC23CCC(C(=O)O)(CC2)C3)nc1C(C)C [Compound 104]	> 20	1.12	–	–
CC(C)COc1cc(=O)n(CC(=O)NC23CC(F)(C2)C3)nc1C(C)C [Compound 105]	> 20	1.21	–	–
CN(C)c1nn(CC(=O)Nc2ccc3nncn3c2)c(=O)cc1OCC(F)(F)F [Compound 106]	> 20	1.21	–	–
CC(C)COc1cc(=O)n(CC(=O)NC23CC(C(N)C(F)(F)F)(C2)C3)nc1C(C)C (stereo not shown) [Compound 107]	> 20	1.31	–	–
CC(C)COc1cc(=O)n(CC(=O)Nc2ccc3nncn3n2)nc1OCC(C)C [Compound 108]	> 20	1.33	–	–
CNC(C(F)(F)F)C12CC(NC(=O)Cn3nc(C(C)C)c(OCC(C)C)cc3=O)(C1)C2 (stereo not shown) [Compound 109]	> 20	1.35	–	–

SMILES	AC50 ([1]; PBMC) [µM]	AC50 ([2]; PBMC) [µM]	AC50 [1] [µM]	AC50 [2] [µM]
CC(C)COc1cc(=O)n(CC(=O)NC23CC(C2)C3)nc1C(C)C [Compound 110]	> 20	1.44	–	–
COCC12CC(NC(=O)Cn3nc(C(C)C)c(OCC(C)C)cc3=O)(C1)C2 [Compound 111]	> 20	1.47	–	–
CC(C)COc1cc(=O)n(CC(=O)NC23CC(CS(C)(=O)=O)(C2)C3)nc1C(C)C [Compound 112]	> 20	1.55	–	–
CC(C)COc1cc(=O)n(CC(=O)Nc2cc3ccccn3n2)nc1C(C)C [Compound 113]	> 20	1.79	–	–
CC(C)c1nn(CC(=O)Nc2ccc3nncn3c2)c(=O)c(Cl)c1OCC(F)(F)F [Compound 114]	> 20	1.85	–	–
CC(C)COc1cc(=O)n(CC(=O)NC23CCC(NC(=O)OC(C)(C)C)(C2)C3)nc1C(C)C [Compound 115]	> 20	1.88	–	–
CC(C)COc1cc(=O)n(CC(=O)NC23CC(S(=O)(=O)C4CC4)(C2)C3)nc1C(C)C [Compound 116]	> 20	1.91	–	–
CC(C)COc1cc(=O)n(CC(=O)NC23CC(N)(C2)C3)nc1C(C)C [Compound 117]	> 20	2.04	–	–
CC(C)COc1c(C(C)C)nn(CC(=O)Nc2ccc3nncn3c2)c(=O)c1C(F)F [Compound 118]	> 20	2.3	–	–
Cc1nnc(C23CC(NC(=O)Cn4nc(C(C)C)c(OCC(C)C)cc4=O)(C2)C3)o1 [Compound 119, 2-(4-isobutoxy-3-isopropyl-6-oxopyridazin-1(6H)-yl)-N-(3-(5-methyl-1,3,4-oxadiazol-2-yl)bicyclo[1.1.1]pentan-1-yl)acetamide]	> 20	2.52	–	–
Cc1ccn2nc(NC(=O)Cn3nc(C(C)C)c(OCC(C)C)cc3=O)cc2n1 [Compound 120]	> 20	2.66	–	–
CC(C)COc1cc(=O)n(CC(=O)NC23CC(N4CCCCC4)(C2)C3)nc1C(C)C [Compound 121]	> 20	2.71	–	–
CC(C)COc1cc(=O)n(CC(=O)N[C@]23CC[C@@](NC(=O)OC(C)(C)C)(CC2)C3)nc1C(C)C [Compound 122, tert-butyl ((1r,4r)-4-(2-(4-isobutoxy-3-isopropyl-6-oxopyridazin-1(6H)-yl)acetamido)bicyclo[2.2.1]heptan-1-yl)carbamate]	> 20	2.81	–	–
COc1ccc2nc(NC(=O)Cn3nc(C(C)C)c(OCC(C)C)cc3=O)nn2c1 [Compound 123]	> 20	2.91	–	–
CC(C)COc1cc(=O)n(CC(=O)Nc2nc3ccc(C(F)(F)F)cn3n2)nc1C(C)C [Compound 124]	> 20	3.4	–	–
CC(C)COc1cc(=O)n(CC(=O)NC23C4C5C2C2C3C4C52C(=O)O)nc1C(C)C (stereo not shown) [Compound 125]	> 20	3.41	–	–
CC(C)COc1cc(=O)n(CC(=O)Nc2cn3cc(Br)ncc3n2)nc1C(C)C [Compound 126]	> 20	3.56	–	–
CC(C)COc1c(C(C)C)nn(CC(=O)Nc2ccc3nncn3n2)c(=O)c1C(C)O (stereo not shown) [Compound 127]	19.4	3.88	–	–
CC(C)COc1cc(=O)n(CC(=O)Nc2nc3ccccc3o2)nc1C(C)C [Compound 128]	> 20	4.28	–	–
CC(C)COc1cc(=O)n(CC(=O)Nc2nc3ccc(Cl)cn3n2)nc1C(C)C [Compound 129]	> 20	4.7	–	–
Cc1cc(C(F)(F)F)n2nc(NC(=O)Cn3nc(C(C)C)c(OCC(C)C)cc3=O)nc2n1 [Compound 130, 2-(4-isobutoxy-3-isopropyl-6-oxopyridazin-1(6H)-yl)-N-(5-methyl-7-(trifluoromethyl)-[1,2,4]triazolo[1,5-a]pyrimidin-2-yl)acetamide]	> 20	8.73	–	–
CC(C)COc1cc(=O)n(CC(=O)NC23CC(C(=O)O)(C2)C3)nc1C(C)C [Compound 131, 3-(2-(4-isobutoxy-3-isopropyl-6-oxopyridazin-1(6H)-yl)acetamido)bicyclo[1.1.1]pentane-1-carboxylic acid]	> 20	9.63	–	–
CC(C)COc1cc(=O)n(CC(=O)NC23CC(NC(=O)OC(C)(C)C)(C2)C3)nc1C(C)C [Compound 132]	> 20	9.79	–	–
Cc1ccc2c(c1)nc(NC(=O)Cn1nc(C(C)C)c(OCC(C)C)cc1=O)n2C [Compound 133]	> 10	> 10	–	–
CC(C)COc1cc(=O)n(CC(=O)Nc2nc3ccc(Cl)cc3n2C)nc1C(C)C [Compound 134]	> 10	> 10	–	–
